Results published in patent publication US11247985B2, “Phenyl indole allosteric inhibitors of P97 ATPase” (University of Pittsburgh—Of the Commonwealth System of …, priority 2015, dated 2022).

Molecular target: p97 ATPase WT (Homo sapiens (Human), UniProt P55072)
Assay: p97 ADP-Glo assay
Assay type: biochemical
Settings: Table 3; read-out: ADPGlo IC50
Excerpt: ADP-Glo™ (Promega Corp.) is a bioluminescent, homogeneous assay that measures ADP formed from a biochemical reactions. Because of its high sensitivity, the assay is suitable for monitoring enzyme activities at very early substrate conversions requiring very low amount of enzymes.
The ADP-Glo assay can be conducted as described in Chou, T.-F.; Bulfer, S. L.; Weihl, C.

p97 ATPase WT, sequence (P55072 whole entry): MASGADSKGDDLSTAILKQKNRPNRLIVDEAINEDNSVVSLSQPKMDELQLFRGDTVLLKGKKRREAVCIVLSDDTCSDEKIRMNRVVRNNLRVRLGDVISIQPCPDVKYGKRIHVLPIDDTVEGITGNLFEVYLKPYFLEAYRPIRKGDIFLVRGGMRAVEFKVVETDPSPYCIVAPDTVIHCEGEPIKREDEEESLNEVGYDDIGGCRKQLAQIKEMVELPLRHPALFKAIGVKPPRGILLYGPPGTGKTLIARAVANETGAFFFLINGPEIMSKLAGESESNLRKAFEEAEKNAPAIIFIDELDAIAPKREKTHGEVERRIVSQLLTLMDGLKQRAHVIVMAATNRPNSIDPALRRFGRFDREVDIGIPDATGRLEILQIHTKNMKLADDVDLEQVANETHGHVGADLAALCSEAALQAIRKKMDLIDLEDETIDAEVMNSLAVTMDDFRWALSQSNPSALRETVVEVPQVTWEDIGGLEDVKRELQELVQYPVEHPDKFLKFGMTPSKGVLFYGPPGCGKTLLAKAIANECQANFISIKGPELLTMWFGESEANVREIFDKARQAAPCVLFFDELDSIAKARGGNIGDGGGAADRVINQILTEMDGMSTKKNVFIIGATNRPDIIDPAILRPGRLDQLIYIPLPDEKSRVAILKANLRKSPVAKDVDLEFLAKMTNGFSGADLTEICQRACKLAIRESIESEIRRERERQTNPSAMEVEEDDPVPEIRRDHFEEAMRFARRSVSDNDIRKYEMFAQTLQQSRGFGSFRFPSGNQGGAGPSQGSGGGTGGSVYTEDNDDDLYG

| SMILES | IC50 |
| --- | --- |
| CC(C)N1CCN(CCNC2CCN(c3cccc(-c4nc5ccccc5n4-c4ccc(C(c5ccccc5)c5ccccc5)cc4)c3)CC2)CC1 | 7100 nM |
| COCCN1CCN(CCNC2CCN(c3cccc(-c4cc5ccccc5[nH]4)c3)CC2)CC1 | 300 nM |
| c1ccc(CN2CCN(CCNC3CCN(c4cccc(-c5cc6ccccc6[nH]5)c4)CC3)CC2)cc1 | 300 nM |
| CN1CCC(NC2CCN(c3cccc(-c4cc5cc(F)ccc5[nH]4)c3)CC2)CC1 | 180 nM |
| CC(C)N1CCN(C(=O)CCNC2CCN(c3cccc(-c4cc5cc(C#N)ccc5[nH]4)c3)CC2)CC1 | 150 nM |
| CN1CCN(C(=O)CCNC2CCN(c3cccc(-c4cc5cc(C#N)ccc5[nH]4)c3)CC2)CC1 | 320 nM |
| c1ccc(CNC2CCN(c3cccc(-c4cc5ccccc5[nH]4)c3)CC2)nc1 | 1000 nM |
| CC(C)N1CCN(CCNC2CCN(c3cccc(-c4cc5cc(S(F)(F)(F)(F)F)ccc5[nH]4)c3)CC2)CC1 | 21000 nM |
| NC1CCN(c2cccc(-c3cc4ccccc4[nH]3)c2)CC1 | 1800 nM |
| CC(C)N1CCN(C2CCN(c3cccc(-c4cc5cc(F)ccc5[nH]4)c3)CC2)CC1 | 4300 nM |
| COC(=O)CCNC1CCN(c2cccc(-c3cc4cc(F)ccc4[nH]3)c2)CC1 | 1300 nM |
| CC(C)N1CCN(CCNC2CCN(c3cccc(-c4cc5c(F)cccc5[nH]4)c3)CC2)CC1 | 1300 nM |
| CC(C)N1CCN(CCNC2CCN(c3cccc(-c4ccc5ccccc5c4)c3)CC2)CC1 | 5100 nM |
| Cc1ccc(N2CCC(NC3CCN(C(C)C)CC3)CC2)cc1-c1cc2ccccc2[nH]1 | 500 nM |
| O=C1CN(CCNC2CCN(c3cccc(-c4cc5ccccc5[nH]4)c3)CC2)CCN1 | 850 nM |
| CC(C)N1CCN(C2(CNC3CCN(c4cccc(-c5cc6cc(F)ccc6[nH]5)c4)CC3)CCC2)CC1 | 130 nM |
| O=S1(=O)CCN(CCNC2CCN(c3cccc(-c4cc5ccccc5[nH]4)c3)CC2)CC1 | 700 nM |
| CC(C)N1CCN(CCNC2CCN(c3cccc(-c4cc5ccc(F)cc5[nH]4)c3)CC2)CC1 | 540 nM |
| Cc1c(-c2cc3ccccc3[nH]2)cccc1N1CCC(NC2CCN(C)CC2)CC1 | 15000 nM |
| CC(C)N1CCN(CCNC2CCN(c3cccc(-c4cc5c([nH]4)CCNC5)c3)CC2)CC1 | 11000 nM |
| CC(C)N1CCN(C2(CNC(=O)C3CCN(c4cccc(-c5cc6cc(F)ccc6[nH]5)c4)CC3)CCC2)CC1 | 3800 nM |
| CC(C)N1CCC(NC2CCN(c3cccc(-c4cc5cc(C#N)ccc5[nH]4)c3)CC2)CC1 [drawing 226] | 47 nM |

| SMILES | IC50 |
| --- | --- |
| CON(C)C(=O)c1ccc2[nH]c(-c3cccc(N4CCC(NCCN5CCN(C(C)C)CC5)CC4)c3)cc2c1 | 16000 nM |
| CC(C)N1CCN(CCNC2CCN(c3cccc(-c4cc5ccc(C#N)cc5[nH]4)c3)CC2)CC1 | 6100 nM |
| CC(C)N1CCN(CC(=O)NC2CCN(c3cccc(-c4cc5ccccc5[nH]4)c3)CC2)CC1 | 7600 nM |
| CC(C)N1CCN(CCNC2CCN(c3cccc(-c4cc5cc(C#N)ccc5[nH]4)c3)CC2)CC1 | 26 nM |
| CC(C)N1CCN(CCNC2CCN(c3cccc(-c4cc5cc(F)ccc5[nH]4)c3)CC2)CC1 | 27 nM |
| c1cc(-c2cc3ccccc3[nH]2)cc(N2CCC(NCCN3CCNCC3)CC2)c1 | 310 nM |
| Cn1ncnc1CCNC1CCN(c2cccc(-c3cc4cc(C#N)ccc4[nH]3)c2)CC1 | 890 nM |
| [N-]=[N+]=Nc1ccc(NCCNC2CCN(c3cccc(-c4cc5ccccc5[nH]4)c3)CC2)cc1 | 5600 nM |
| Cc1ccc(N2CCC(NCCN3CCN(C(C)C)CC3)CC2)cc1-c1cc2cc(C#N)ccc2[nH]1 | 86 nM |
| CC(C)N1CCC(NC2CCN(c3cccc(-c4cc5cc(S(C)(=O)=O)ccc5[nH]4)c3)CC2)CC1 | 20000 nM |
| CC(C)N1CCN(CCNC2CCN(c3cccc(-c4cc5cc(F)c(F)cc5[nH]4)c3)CC2)CC1 | 330 nM |
| c1cc(-c2cc3ccccc3[nH]2)cc(N2CCC(NCCN3CCCC3)CC2)c1 | 880 nM |
| Cc1ccc(N2CCC(NCCN3CCN(C(C)C)CC3)CC2)cc1-c1[nH]c2ccccc2c1C | 23000 nM |
| CCCCNC1CCN(c2cccc(-c3cc4ccccc4[nH]3)c2)CC1 | 1700 nM |
| c1cc(-c2cc3ccccc3[nH]2)cc(N2CCC(NCCN3CCOCC3)CC2)c1 | 910 nM |
| c1ccc(CCNC2CCN(c3cccc(-c4cc5ccccc5[nH]4)c3)CC2)cc1 | 2700 nM |
| CC(C)N1CCN(CCNC2CCN(c3cccc(-c4cc5cc(C(N)=O)ccc5[nH]4)c3)CC2)CC1 | 87 nM |
| c1cc(-c2cc3ccccc3[nH]2)cc(N2CCC(NCCN3CCCNCC3)CC2)c1 | 320 nM |
| CN1CCN(CCNC2CCN(c3cccc(-c4cc5ccccc5[nH]4)c3)CC2)CC1 | 380 nM |
| c1ccc(CCNC2CCN(c3cccc(-c4cc5ccccc5[nH]4)c3)CC2)nc1 | 720 nM |
| Cc1c(-c2cccc(N3CCC(NC4CCN(C)CC4)CC3)c2)[nH]c2ccccc12 | 22000 nM |
| CC(C)N1CCN(CCNC2CCN(c3cccc(-c4cc5cc([N+](=O)[O-])ccc5[nH]4)c3)CC2)CC1 [drawing 222] | 36 nM |

| SMILES | IC50 |
| --- | --- |
| CNC(=O)CCNC1CCN(c2cccc(-c3cc4cc(F)ccc4[nH]3)c2)CC1 | 630 nM |
| Cc1ccc(N2CCC(NCC3(N4CCN(C(C)C)CC4)CCC3)CC2)cc1-c1cc2cc(C#N)ccc2[nH]1 | 100 nM |
| CN1CCN(C(=O)CCNC2CCN(c3cccc(-c4cc5ccccc5[nH]4)c3)CC2)CC1 | 290 nM |
| Cc1ncncc1NC(=O)c1cccc(N2CCC(NCCN3CCN(C(C)C)CC3)CC2)c1 | 23000 nM |
| CC(C)N1CCC(NC2CCN(c3cccc(-c4cc5cc(S(=O)(=O)NC(C)(C)C)ccc5[nH]4)c3)CC2)CC1 | 14000 nM |
| CC(C)N1CCN(C2(CNC3CCN(c4cccc(-c5cc6cc(C#N)ccc6[nH]5)c4)CC3)COC2)CC1 | 110 nM |
| c1ccc(CNC2CCN(c3cccc(-c4cc5ccccc5[nH]4)c3)CC2)cc1 | 960 nM |
| FC(F)(F)CN1CCN(CCNC2CCN(c3cccc(-c4cc5ccccc5[nH]4)c3)CC2)CC1 | 1300 nM |
| CNC(=O)c1ccc2[nH]c(-c3cccc(N4CCC(NCCN5CCN(C(C)C)CC5)CC4)c3)cc2c1 | 430 nM |
| CC(C)N1CCN(CCNC2CCN(c3cccc(-c4cc5ccc([N+](=O)[O-])cc5[nH]4)c3)CC2)CC1 | 4600 nM |
| Cc1ccc(N2CCC(NC3CCN(C)CC3)CC2)cc1-c1cc2cc(F)ccc2[nH]1 | 82 nM |
| CN(C)CCNC1CCN(c2cccc(-c3cc4cc(C#N)ccc4[nH]3)c2)CC1 | 460 nM |
| CN1CCC(NC2CCN(c3cccc(-c4cc5ccccc5[nH]4)c3)CC2)CC1 | 380 nM |
| CCOC(=O)Nc1cccc(N2CCC(NCCN3CCN(C(C)C)CC3)CC2)c1 | 1700 nM |
| CC(C)N1CCC(NC2CCN(c3cccc(-c4cc5cc(S(N)(=O)=O)ccc5[nH]4)c3)CC2)CC1 | 8600 nM |
| CC(C)N1CCC(NC2CCN(c3cccc(-c4cc5cc(F)ccc5[nH]4)c3)CC2)CC1 | 49 nM |
| CN1CCN(CC2(NC3CCN(c4cccc(-c5cc6ccccc6[nH]5)c4)CC3)CC2)CC1 | 440 nM |
| CC(C)N1CCN(CCNC(=O)C=C2CCN(c3cccc(-c4cc5ccccc5[nH]4)c3)CC2)CC1 | 7580 nM |
| CN(C)CCNC1CCN(c2cccc(-c3cc4ccccc4[nH]3)c2)CC1 | 570 nM |
| O=C(CCNC1CCN(c2cccc(-c3cc4cc(F)ccc4[nH]3)c2)CC1)N1CCCCC1 | 1400 nM |
| Cc1ccc(CNC2CCN(c3cccc(-c4cc5ccccc5[nH]4)c3)CC2)o1 | 890 nM |
| Cn1ncnc1CCNC1CCN(c2cccc(-c3cc4cc(F)c(F)cc4[nH]3)c2)CC1 | 2200 nM |

| SMILES | IC50 |
| --- | --- |
| Cc1c(-c2cc3ccccc3[nH]2)cccc1N1CCC(NCCN2CCN(C(C)C)CC2)CC1 | 14000 nM |
| CN1CCN(C2(CNC3CCN(c4cccc(-c5cc6cc(F)ccc6[nH]5)c4)CC3)CCC2)CC1 | 15 nM |
| CC(C)N1CCC(NC2CCN(c3cccc(-c4cc5cc(C#N)ccc5[nH]4)c3)CC2)CC1 [drawing 239] | 4900 nM |
| Fc1ccc2[nH]c(-c3cccc(N4CCC(NCc5cccnc5)CC4)c3)cc2c1 | 340 nM |
| CC(C)N1CCN(CCNC2CCN(c3cccc(-c4cc5cc(Cl)ccc5[nH]4)c3)CC2)CC1 | 120 nM |
| CN1CCC(NC2CCN(c3cccc(-c4cc5cc(C#N)ccc5[nH]4)c3)CC2)CC1 | 130 nM |
| CC(C)N1CCN(CCNC2CCN(c3cccc(-c4cc5cnccc5[nH]4)c3)CC2)CC1 | 3800 nM |
| N#Cc1ccc2[nH]c(-c3cccc(N4CCC(NCc5ccccc5)CC4)c3)cc2c1 | 430 nM |
| C[C@@H]1CN(CCNC2CCN(c3cccc(-c4cc5ccccc5[nH]4)c3)CC2)C[C@H](C)N1C | 140 nM |
| CC(C)N1CCN(CCNC2CCN(c3cncc(-c4cc5ccccc5[nH]4)c3)CC2)CC1 | 8000 nM |
| CC(C)N1CCN(CCNC2CCN(c3cccc(-c4cc5cc(O)ccc5[nH]4)c3)CC2)CC1 | 100 nM |
| Cc1c(-c2cccc(N3CCC(NCCN4CCN(C(C)C)CC4)CC3)c2)[nH]c2ccccc12 | 12000 nM |
| CC(C)N1CCN(CCNC2CCN(c3cccc(NC(=O)OCc4ccccc4)c3)CC2)CC1 | 1700 nM |
| COC(=O)CCNC1CCN(c2cccc(-c3cc4ccccc4[nH]3)c2)CC1 | 1000 nM |
| COc1ccc2[nH]c(-c3cccc(N4CCC(NCCN5CCN(C(C)C)CC5)CC4)c3)cc2c1 | 660 nM |
| c1cc(-c2cc3ccccc3[nH]2)cc(N2CCC(NCc3ccncc3)CC2)c1 | 1400 nM |
| CCN1CCN(CCNC2CCN(c3cccc(-c4cc5ccccc5[nH]4)c3)CC2)CC1 | 190 nM |
| Cn1ncnc1CCNC1CCN(c2cccc(-c3cc4cc(F)ccc4[nH]3)c2)CC1 | 1300 nM |
| N#Cc1ccc2[nH]c(-c3cccc(N4CCC(NCc5cccnc5)CC4)c3)cc2c1 | 290 nM |
| CC(C)N1CCC(NC2CCN(c3cccc(-c4cc5ccccc5[nH]4)c3)CC2)CC1 | 130 nM |

Same assay, conditions: p97 ADP-Glo assay, differ from Table 2; read-out: ADP-Glo IC50

| SMILES | IC50 |
| --- | --- |
| CC(C)N1CCN(CCNC2CCN(c3cccc(-c4cc5cc([N+](=O)[O-])ccc5[nH]4)c3)CC2)CC1 [Compound 23, N-(2-(4-Isopropylpiperazin-1-yl)ethyl)-1-(3-(5-nitro-1H-indol-2-yl)phenyl)piperidin-4-amine] | 40 ± 40 nM |

Same assay, conditions: p97 ADP-Glo assay; read-out: inhibitor of the AAA ATPase (potency in words)

| SMILES | IC50 |
| --- | --- |
| CC(C)N1CCN(CCNC2CCN(c3cccc(-c4cc5cc([N+](=O)[O-])ccc5[nH]4)c3)CC2)CC1 [Compound 23, N-(2-(4-Isopropylpiperazin-1-yl)ethyl)-1-(3-(5-nitro-1H-indol-2-yl)phenyl)piperidin-4-amine] | 40 nM |
